Experimental data as given in US20070238755A1, “Methods to treat and/or prevent radiation- and/or chemical-induced toxicity in non-malignant tissue” (priority 2005, published 2007).

Columns and labels:
Format in all cases: in vivo, male Sprague-Dawley rats
[1] = test system: irradiated rats (locally irradiated scrotal hernia containing a loop of distal ileum); test: Morphometry of irradiated intestine, intestinal fibrosis Experiment 1; conditions: trend is worded for vehicle-treated animals as compared to Formula 2-treated animals
Excerpt: (§1) A particularly relevant animal model for radiation toxicity is described in Wang et al., J Thromb Haemost, 2(11):2027-2035 (2004)). In brief, a “scrotal hernia” containing a 4 cm loop of distal ileum is surgically created in male Sprague-Dawley rats. After a 3 week recovery period, the scrotal hernia is irradiated locally without exposing the rest of the animal to ionizing radiation.
(§2) Scrotal hernias were created in rats which subsequently received one of three different treatments subcutaneously: (i) vehicle control (i.e., 0.4% methyl cellulose); (ii) 10 mg/kg/day of Formula 2; and (iii) 15 mg/kg/day of Formula 2. The treatments were administered for 24 days total, starting the day before irradiation (i.e., from Day-1 to Day 23). […] After an additional 2 week observation period following treatment, the rats were euthanized and assessed for radiation toxicity using these endpoints: structural radiation injury, immunohistochemistry (e.g., neutrophil infiltration, collagen type III deposition, smooth muscle cell proliferation, extracellular matrix-associated TGF-β immunoreactivity, collagen type I deposition, macrophages (ED-2)), and morphomety.
The thickness of the intestinal wall proper (submucosa, muscularis externa, and subserosa, but excluding the mucosa) was measured with an eyepiece linear microruler. […]

[2] = test system: irradiated rats (locally irradiated scrotal hernia containing a loop of distal ileum); test: Structural radiation injury (Radiation Injury Score) in the scrotal hernia intestinal fibrosis model, Experiment 1; conditions: 10 or 15 mg/kg/day s.c. for 24 days (Day -1 to Day 23); 5 Gy for 9 days; compared to vehicle; p=0.003 Jonckheere-Terpstra test; FIG. 1
Excerpt: as §1
as §2, with “2.” for “2. The treatments were administered for 24 days total, starting the day before irradiation (i.e., from Day-1 to Day 23).”
Structural radiation injury was assessed in hematoxylin-eosin-stained sections using a radiation injury score system previously described (see, Langberg et al., Acta Oncol, 31(7):781-787 (1992); and Hauer-Jensen et al., Acta Radiol Oncol, 22(4):299-303 (1983)). […]

[3] = test system: irradiated rats (locally irradiated scrotal hernia containing a loop of distal ileum); test: Quantitative immunohistochemistry of irradiated intestine, intestinal fibrosis Experiment 1
Excerpt: as §1
Scrotal hernias were created in rats which subsequently received one of three different treatments subcutaneously: (i) vehicle control (i.e., 0.4% methyl cellulose); (ii) 10 mg/kg/day of Formula 2; and (iii) 15 mg/kg/day of Formula 2. The treatments were administered for 24 days total, starting the day before irradiation (i.e., from Day-1 to Day 23). Beginning on Day 1, the scrotal hernia of each animal was irradiated locally by exposure to 5 Gy for 9 days. After an additional 2 week observation period following treatment, the rats were euthanized and assessed for radiation toxicity using these endpoints: structural radiation injury, immunohistochemistry (e.g., neutrophil infiltration, collagen type III deposition, smooth muscle cell proliferation, extracellular matrix-associated TGF-β immunoreactivity, collagen type I deposition, macrophages (ED-2)), and morphomety.
Quantitative immunohistochemistry was used to determine: (i) neutrophil infiltration by mycloperoxidase stalninig; (ii) intestinal smooth muscle cell proliferation using proliferation cell nuclear antigen (PCNA) labeling index; (iii) collagen deposition by staining for collagen types I and III; (iv) extracellular matrix-associated transforming growth factor (TGF)-β, and (v) macrophage ED-2. Immunohistochemical staining was performed with appropriate positive and negative controls using the avidin-biotin complex (ABC) technique previously described by Wang et al., J Thromb Haemost, 2(11):2027-2035 (2004). Primary antibodies, catalog numbers, incubation times, dilutions, and companies were: polyclonal antimyeloperoxidase antibody (A0398, 2 h, 1:100; Dako, Carpinteria, Calif., USA); monoclonal anti-PCNA antibody (NA03, 2 h, 1:100; Calbiochem, Cambridge, Mass., USA); polyclonal antibodies against collagen type I (1310-01, 2 h, 1:100 dilution; Southern Biotechnology Associates, Birmingham, Alab., USA); collagen type III (1330-01, 2 h, 1:100 dilution, Southern Biotechnology Associates); polyclonal rabbit anti-TGF-P antibody (AB-100-NA, 2 h, 1:300 dilution; R&D, Minneapolis, Minn., USA); and ED-2 (MCA342, 2 h, 1:100 dilution, Serotec, Rahway, N.C., USA).
Computerized image analysis was performed as previously described (see, Wang et al., Thromb Haemost, 87(1):122-128(2002); Wang et al., J Pharmacol Exp Ther, 297(1):35-42 (2001)). Neutrophil infiltration was assayed by identifying myeloperoxidase-positive cells as previously described (see, Wang et al., Thromb Haemost, 87(1):122-128(2002)). Areas positive for collagen types I and III deposition were measured as previously described 'see, Raviv et al., World J Urol, 15(l1):50-55 (1997); and Wang et al., Thromb Haemost, 87(1):122-128(2002)). Extracellular matrix-associated TGF-β immunoreactivity was measured as previously described (see, Richter et al., Radiother Oncol, 39(3):243-251 (1996)).
Differences in endpoints as a function of drug treatment (PAR-1 inhibitor vs. vehicle) were assessed using fixed-factor analysis of variance and post hoc comparisons with Newman-Keul's test (NCSS2000 for Windows 95, NCSS, Kaysville, Utah, USA). Univariate comparisons were performed with the Mann-Whitney U-test using StatXact 5 (Cytel Software, Cambridge, Mass., USA), a software package for exact non-parametric inference.

[4] = trend is worded for vehicle-treated animals as compared to Formula 2-treated animals, p=0.4 Jonckheere-Terpstra test

CCOC(=O)N[C@@H]1CC[C@@H]2[C@@H](C1)C[C@H]1C(=O)O[C@H](C)[C@H]1[C@H]2/C=C/c1ccc(-c2ccccn2)cn1 [Formula 2]
intestinal wall thickening (thickness of the intestinal wall proper) ([1]; p=0.2 Jonckheere-Terpstra test): trend toward intestinal wall thickening in vehicle-treated animals | serosal thickening ([1]; p=0.3 Jonckheere-Terpstra test): trend toward serosal thickening in vehicle-treated animals | structural radiation injury as measured by Radiation Injury Score [2]: less | collagen type III deposition ([3]; 10 or 15 mg/kg/day s.c. for 24 days, 5 Gy for 9 days, compared to vehicle, p=0.005 Jonckheere-Terpstra test, FIG. 3): reduced | smooth muscle cell proliferation (PCNA positive cells) ([3]; 10 or 15 mg/kg/day s.c. for 24 days, 5 Gy for 9 days, compared to vehicle, p=0.04 Jonckheere-Terpstra test, FIG. 4): reduced | neutrophil infiltration (myeloperoxidase-positive cells) ([3]; 10 or 15 mg/kg/day s.c. for 24 days, 5 Gy for 9 days, compared to vehicle, p=0.05 Jonckheere-Terpstra test, FIG. 2): reduced | extracellular matrix-associated TGF-β immunoreactivity ([3]; trend is worded for vehicle-treated animals as compared to Formula 2-treated animals, p=0.1 Jonckheere-Terpstra test): trend toward increased levels | collagen type I deposition [3, 4]: trend toward increased levels | macrophages (ED-2) [3, 4]: trend toward increased levels
